Measured values published in article PMC9260667, “Thioredoxin Reductase Inhibitors as Potential Antitumors: Mercury Compounds Efficacy in Glioma Cells” (Frontiers in Molecular Biosciences, 2022).

Key:
Trx1 and Trx2 = assay: Trx oxidation state (Redox Western); format: cell-based, mouse; conditions: GL261, 1 µM, 24 h
Method: The redox state of Trx1 and Trx2 was evaluated by the quantification of the number of reduced -SH groups (Free -SH), according to the Protein Electrophoretic Mobility Shift Assay ([Bersani et al., 2002]; [Branco et al., 2017]).
Briefly, after exposure to the TmHg and EtHg for 24 h, cell pellets were resuspended in Sample Solution (SS - Tris 50 mM, Urea 8 M, pH 8.3) containing 30 mM of iodoacetic acid (IAA; Sigma) and incubated at 37°C for 30 min to alkylate free thiols. This was followed by centrifugation at 13,000 g for 10 min, and the resulting supernatant was washed 3 times with an acetone/1 M HCl mix (98:2 v/v), followed by centrifugation at 13,000 g for 5 min. After evaporation of the acetone mixture, the resulting pellet was incubated at 37°C for 30 min in a SS solution containing 5 mM of DTT to reduce thiols oxidized by TmHg and EtHg. Posteriorly, these thiols were alkylated with SS containing 10 mM iodoacetamide (IAM; Sigma) at 37°C for 30 min.
Next, the samples were loaded onto a Urea-PAGE gel (stacking gel: 4% acrylamide; run gel: 12% acrylamide; 8 M Urea) and run at 10 mA. After 2 h, the proteins in the gel were transferred to a nitrocellulose membrane blocked with skimmed milk and incubated with respective antibodies - Trx1 rabbit polyclonal IgG (ATRX8, IMCO Corp.), Trx2 rabbit polyclonal IgG (sc-50335, Sta. Cruz) and mouse anti-rabbit IgG-HRP (sc-2357, Sta. Cruz). […]

Prx2 = Prx2 redox state (dimer/monomer, non-reducing Western blot); format: cell-based, mouse; conditions: GL261, 1 and 2 μM, 24 h
Method: To evaluate the Prx2 redox state, cells were lysed in lysis buffer containing NEM (N-ethylmaleimide; Sigma) and, subsequently, the soluble protein fraction was separated by non-reducing SDS-PAGE electrophoresis, followed by transfer to a nitrocellulose membrane, after blockage with milk and incubation with the respective antibodies–Prx2 mouse monoclonal IgG (sc-515428, Sta. Cruz) and goat anti-mouse IgG-HRP (sc-2005, Sta. Cruz)—as previously described ([Brown et al., 2008]). The ratio between the bands of the Prx2 dimer and monomer was quantified for each sample using the Bio-Rad Quantity One software.

TrxR [1] = format: cell-based, mouse; conditions: for decrease of TrxR activity: cytosol, 1 µM, 24 h; for IC50: whole-cell lysates, GL261 exposed 24 h
Method: (§1) Total cell lysates were prepared according to previous protocols ([Branco et al., 2014]). 1 × 10^6 cells were plated in […] culture dishes incubated at 37°C until reaching 70–80% confluence. At this point, the culture medium was refreshed and TmHg and EtHg (0.5; 1; 2 µM) were added and incubated at 37°C for 24 h, after which cells were collected by trypsinization and washed with PBS 1x. Subsequently, the pellet was resuspended in lysis buffer (25 mM TrisCl, pH 7.5; 100 mM NaCl; 2.5 mM EDTA; 2.5 mM EGTA; 20 mM NaF, 1 mM sodium orthovanadate, 20 mM sodium pyrophosphate; 20 mM of sodium β-glycerophosphate, 0.5% Triton X-100, and 1 tablet of protease inhibitor cocktail per 10 ml; Roche) vortexed and frozen at −20°C. These lysates were compared to a control group and used to quantify TrxR and Trx activity and expression as described below.
(§2) To obtain the mitochondrial and cytosolic fractions, after exposure to Hg compounds cells were washed and suspended in mitochondrial isolation buffer (210 mM mannitol, 70 mM sucrose, 1 mM EDTA, 10 mM Hepes–NaOH, and pH 7.5), containing protease inhibitor cocktail (Roche). Cells were disrupted with a Teflon pestle and then centrifuged at 600 g for 10 min at 4°C. The resulting nuclear pellets were discarded, and the supernatant was further centrifuged at 13,000 g and 4°C for 15 min, to obtain the mitochondrial pellets and the supernatant soluble fraction. Mitochondrial pellets were treated with cell lysis buffer as described above for whole-cell lysates and the supernatant fraction was further centrifuged at 100,000 g and 4°C for 1 h, to produce the cytosolic fraction ([Branco et al., 2014]). These fractions were used to quantify TrxR and Trx activity and expression as described below.
(§3) The enzymatic activity of TrxR and Trx was determined according to the insulin end-point assay described by [Arnér and Holmgren (2000)] with modifications ([Branco et al., 2014]).
(§4) In parallel, control wells were prepared to contain the same reagents previously mentioned apart from Trx. After the incubation period, 250 µL of a 1 mM DTNB solution in 6 M guanidine-HCL (pH 8.0) was added to wells, and absorbance was measured at 412 nm in a microplate reader (Zenyth 3100, Anthos Labtec Instruments). […] The same procedure was done for the determination of Trx activity, but the samples were incubated with 100 nM of recombinant rat TrxR (IMCO Corp, Sweden) instead of Trx ([Branco et al., 2014]).

TrxR [2] = target: T1, TrxR (Mus musculus, UniProt Q9JLT4); format: cell-based; conditions: mitochondria, 1 µM, 24 h
T1 construct: These lysates were compared to a control group and used to quantify TrxR and Trx activity and expression; These fractions were used to quantify TrxR and Trx activity and expression; endogenous in cells; host or cells: GL261 mouse glioma cells (whole lysate, cytosolic and mitochondrial fractions)
T1 sequence (Q9JLT4 35-524): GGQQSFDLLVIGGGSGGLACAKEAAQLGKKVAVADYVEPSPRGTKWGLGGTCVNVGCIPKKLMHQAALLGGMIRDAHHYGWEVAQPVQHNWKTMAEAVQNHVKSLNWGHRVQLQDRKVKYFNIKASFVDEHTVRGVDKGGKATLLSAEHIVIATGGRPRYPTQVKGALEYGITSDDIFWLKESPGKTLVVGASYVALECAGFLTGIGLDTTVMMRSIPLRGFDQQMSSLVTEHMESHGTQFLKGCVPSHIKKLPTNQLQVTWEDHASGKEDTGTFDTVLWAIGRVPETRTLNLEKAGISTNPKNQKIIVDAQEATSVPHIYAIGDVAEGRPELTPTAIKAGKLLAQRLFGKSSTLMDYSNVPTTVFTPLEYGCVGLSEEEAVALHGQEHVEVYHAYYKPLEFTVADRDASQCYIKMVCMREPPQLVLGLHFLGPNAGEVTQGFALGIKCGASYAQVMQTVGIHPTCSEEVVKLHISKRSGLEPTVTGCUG
Method: as §1, §2, §3, §4

Trx [3] = format: cell-based, mouse; conditions: whole-cell lysates, GL261 exposed 24 h
Method: as §1, §2, §3, §4

Trx [4] = target: T2, Trx (Mus musculus, UniProt P97493); format: cell-based; conditions: mitochondria, GL261 exposed 24 h
T2 construct: These lysates were compared to a control group and used to quantify TrxR and Trx activity and expression; These fractions were used to quantify TrxR and Trx activity and expression; endogenous in cells; host or cells: GL261 mouse glioma cells (whole lysate, cytosolic and mitochondrial fractions)
T2 sequence (P97493 60-166): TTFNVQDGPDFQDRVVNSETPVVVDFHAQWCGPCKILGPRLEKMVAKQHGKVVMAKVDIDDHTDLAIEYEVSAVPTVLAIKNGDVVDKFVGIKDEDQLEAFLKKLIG
Method: as §1, §2, §3, §4

Trx [5] = target: T3, Trx (Mus musculus, UniProt P10639); format: cell-based; conditions: cytosol, GL261 exposed 24 h
T3 construct: These lysates were compared to a control group and used to quantify TrxR and Trx activity and expression; These fractions were used to quantify TrxR and Trx activity and expression; endogenous in cells; host or cells: GL261 mouse glioma cells (whole lysate, cytosolic and mitochondrial fractions)
T3 sequence (P10639 whole entry): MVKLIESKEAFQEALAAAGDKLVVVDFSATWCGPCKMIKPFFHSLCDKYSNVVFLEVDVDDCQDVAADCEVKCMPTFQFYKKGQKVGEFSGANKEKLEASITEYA
Method: as §1, §2, §3, §4

C[CH2][Hg] [EtHg, ethylmercury]
redox states of Trx1 and Trx2 (Trx1 and Trx2): increasing the oxidation of Cys residues in both isoforms
increase in Prx2 dimerization relative to non-treated control (Prx2): 20–40%
decrease of TrxR activity (TrxR [1]): 50%
IC50 (TrxR [1]): 0.8 µM
decrease of TrxR activity (TrxR [2]): lesser effect
IC50 (Trx [3]): 1.3 µM

C[CH2][Hg][S]c1ccccc1C(=O)[O-].[Na+] [TmHg, thimerosal]
redox states of Trx1 and Trx2 (Trx1 and Trx2): increasing the oxidation of Cys residues in both isoforms
increase in Prx2 dimerization relative to non-treated control (Prx2): 20–40%
decrease of TrxR activity (TrxR [1]): 60%
IC50 (TrxR [1]): 0.7 µM
IC50 (Trx [4]): 1.6 µM
decrease of TrxR activity (TrxR [2]): 60%
IC50 (Trx [5]): 1.2 µM
IC50 (Trx [3]): 0.7 µM
